# What was measured:
# APPSwe transgenic mice = assay: Visudyne ablation in APPSwe mice, Morris water maze (Example 10); format: in vivo; conditions: APPSwe mice 6-7 months-old, ablation every 2 weeks for 1 month, vs vehicle
# Source text: Adult (6-7 months-old) APPSwe transgenic mice were anesthetized, injected with visudyne (ICM), or vehicle as a control, and submitted to a step of transcranial photoconversion, every 2 weeks for a total of 1 month. […] Results are presented as mean±s.e.m.; n=9 per group; *P<0.05, two-way ANOVA—Repeated Measures, with Bonferroni post hoc test.
# [1] = tested on: 5xFAD (APPSweFILon,PSEN1*M146L*L286V) transgenic mice; assay: Visudyne ablation in 5xFAD mice, amyloid pathology (Example 9); format: in vivo; conditions: ablation every 3 weeks for 1.5 months
# Source text: Meningeal lymphatic ablation in 1.5 months-old 5xFAD (APPSweFILon,PSEN1*M146L*L286V) transgenic mice was achieved by ICM injection of visudyne, or vehicle as a control, followed by a step of transcranial photoconversion. This procedure was repeated every 3 weeks, for a total of 1.5 months. Meninges of 5xFAD mice from the different groups were stained with DAPI and for LYVE-1 and Aβ. Aβ aggregates were detected in the meninges of 5xFAD mice that undergone lymphatic ablation by visudyne, but not in the meninges of vehicle-injected mice. Aβ aggregates formed specially around the sinuses and in the cerebellar meninges. Hippocampus was stained for DAPI and Amyloid-beta in vehicle or visudyne-injected 5xFAD mice (scale bar, 1 mm, inset, 200 μm). […] Results are presented as mean±s.e.m.; n=5 per group: *P<0.05, one-tailed Mann-Whitney test.
# meningeal lymphatics = assay: Photoablation of meningeal lymphatics, Visudyne 5 or 20 μg, 690 nm laser (FIG. 14); format: in vivo, mice; conditions: 5 or 20 μg i.c.v., 24 hrs post-ablation
# Protocol: Meninges were stained for Lyve-1, Prox1 and CD31 24 hrs post-ablation. […] In FIG. 14C, the top panel refers to a control, the middle mane refers to 20,000 ng of Visudyne, and the bottom panel refers to 5,000 ng of Visudyne.
# [2] = tested on: meningeal lymphatic vessels; assay: EAE (MOG35-55) after Visudyne meningeal lymphatic ablation; format: in vivo, C57b16 mice
# Protocol: FIG. 22 is a graph showing ablation of the meningeal lymphatic decreases EAE score. Adult C57b16 mice were injected ICV (cisterna magna) or intranasally with Visudyne that was then photoconverted (Meningeal ablation) or not (Control). On the same day, EAE was induced by injected MOG 35-55 emulsion subcutaneously. At day 17 mice were scored prior to sacrifice (brain, meninges, and spinal cord were harvested for IHC to measure the amount of demyelination and the infiltrate).
# EAE clinical symptom development in laser. Visudyne (i.n.)+laser and Visudyne (i.c.m.)+laser treated mice. (mean±s.e.m. n=12-41 mice/group pooled from 3 independent experiments, ****p<0.0001, repeated measures 2 way ANOVA with Tukey's multiple comparisons test) is shown in FIG. 51A. Incidence of EAE development (day mice reach a score of 1 or above) in laser, Visudyne (i.n.)+laser and Visudyne (i.c.m.)+laser treated mice. Representative dot plots of CD4 and CD8 T cells in the spinal cord of laser and Visudyne (i.c.m.)+laser mice during late onset EAE (D17) are shown in FIG. 51C. Quantification of the number of CD4 T cells in the spinal cord of laser and Visudyne (i.c.m.)+laser treated mice at D17 post immunization. (mean±s.e.m. n=4/5 mice per group, representative of 2 independent experiments, **p=0.005, unpaired t test) is shown in FIG. 51D. […] Accordingly, it is contemplated that ablation of lymphatic vessels in accordance with some embodiments herein can ameliorate symptoms and disease development of MS, for which EAE (MOG) is a model.
# [3] = tested on: meningeal lymphatic vessels; assay: Photoablation of meningeal lymphatic vessels, multiphoton 690 nm laser through thin skull (FIG. 18); format: in vivo, mice; conditions: 2 μl i.c.v., two hours after the ablation
# Protocol: FIGS. 18A-D are a series of microscope images and graphs showing photoablation of meningeal lymphatic vessels. […] (cisterna magna) with 2 μl of Visudyne, which was activated using 690 nm laser of multiphoton microscope through thin skull. Two hours after the ablation, the meninges were collected and stained for lymphatic endothelial cell (Lyve-1) and blood vessels (laminin).
# [4] = tested on: meningeal lymphatic vessels; assay: Visudyne ablation in old mice, OVA-A647 CSF tracer (Example 3); format: in vivo, C57BL/6 mice; conditions: old (20-24 months-old) mice, 7 days post ablation, vs old+vehicle
# Protocol: Injections of visudyne or vehicle (ICM), followed by a photoconversion step, were performed in adult (3 months-old) or old (20-24 months-old) C57BL/6 mice. 7 days post ablation, OVA-A647 (2.5 μg) was injected into the CSF (ICM) and mice were transcardially perfused with saline 2 h after.
# [5] = tested on: meningeal lymphatic vessels; assay: Visudyne ablation, OVA-A647 CSF tracer drainage and brain influx (Example 2); format: in vivo, C57BL/6 mice; conditions: vs vehicle
# Protocol: Adult C57BL/6 mice were injected with visudyne or vehicle (ICM) followed by a step of photoconversion. 7 days post ablation, 2.5 μg of ovalbumin-Alexa647 (OVA-A647) was injected into the CSF (ICM) and mice were transcardially perfused with saline 2 h after. j, Representative sections of dcLNs were stained with DAPI and LYVE-1, and levels of drained OVA-A647 were measured, and representative sections are shown for vehicle (FIG. 24A) and visudyne (FIG. 24B). OVA-A647 alone is shown in the inset in the upper right corner of each of FIGS. 24A and 24B, and LYVE-1 alone is shown in the inset in the lower right corner of each of FIGS. 24A and 24B.
substance,measurement,setting,value
verteporfin [Visudyne],MWM probe and reversal,APPSwe transgenic mice,No differences
same,"latency to find the platform, 4th day of the acquisition phase of the MWM",APPSwe transgenic mice,Significant differences
same,Aβ aggregates in the meninges,[1]; not in vehicle-injected mice,detected
same,amyloid plaque coverage in the hippocampus,[1]; vs vehicle,statistically significant increase
same,amyloid plaque number in the hippocampus,[1]; vs vehicle,statistically significant increase
same,amyloid plaque size in the hippocampus,[1]; vs vehicle,trend for increased plaque size
same,effect on the blood vessels (CD31),meningeal lymphatics,No effect on the blood vessels
same,"meningeal lymphatics in superior sagittal and transverse sinuses (Lyve-1, Prox1)",meningeal lymphatics,Disruption of lymphatics
same,EAE disease development,[2]; Visudyne (i.c.m.)+laser vs laser and Visudyne (i.n.)+laser,ameliorate disease development
same,MOG-specific T cell activation in the deep cervical lymph nodes,"[2]; Visudyne (i.c.m.)+laser vs laser, EAE",ameliorates MOG-specific T cell activation
same,EAE score / disease severity,"[2]; Visudyne ICV (cisterna magna) or intranasal, photoconverted vs not, scored day 17",decreases disease severity
same,effect on the blood vessels (laminin),[3],No effect on the blood vessels was observed
same,lymphatic vessels at the area of ablation (superior sagittal sinus),[3],Disruption of lymphatic vessels is evident
same,lymphatic vessels in transverse sinuses,[3],trend to disruption
same,influx of a CSF tracer (OVA-A647) into the brain,[4],does not further aggravate
same,amount of OVA-A647 drained into the dcLNs,"[5]; 2 h after OVA-A647 2.5 μg ICM, 7 days post ablation",significantly decreased
same,OVA-A647 influx into the brain parenchyma,"[5]; 2 h after OVA-A647 ICM, 7 days post ablation",significant decrease
same,brain parenchyma coverage by aquaporin 4 (AQP4) expressing cells,"[5]; adult mice, visudyne-induced ablation",no changes
